The values below come from patent US8318928B2, “Fused imidazole carboxamides as TRPV3 modulators” (Glenmark Pharmaceuticals, S.A., priority 2008, dated 2012).

This assay deals with T1, Human TRPV3 expressing CHO cells (Homo sapiens, UniProt Q8NET8).
T1 construct: expressed in transfected cells; host or cells: CHO cells, kept under G-418 selection
T1 sequence (Q8NET8 1-790): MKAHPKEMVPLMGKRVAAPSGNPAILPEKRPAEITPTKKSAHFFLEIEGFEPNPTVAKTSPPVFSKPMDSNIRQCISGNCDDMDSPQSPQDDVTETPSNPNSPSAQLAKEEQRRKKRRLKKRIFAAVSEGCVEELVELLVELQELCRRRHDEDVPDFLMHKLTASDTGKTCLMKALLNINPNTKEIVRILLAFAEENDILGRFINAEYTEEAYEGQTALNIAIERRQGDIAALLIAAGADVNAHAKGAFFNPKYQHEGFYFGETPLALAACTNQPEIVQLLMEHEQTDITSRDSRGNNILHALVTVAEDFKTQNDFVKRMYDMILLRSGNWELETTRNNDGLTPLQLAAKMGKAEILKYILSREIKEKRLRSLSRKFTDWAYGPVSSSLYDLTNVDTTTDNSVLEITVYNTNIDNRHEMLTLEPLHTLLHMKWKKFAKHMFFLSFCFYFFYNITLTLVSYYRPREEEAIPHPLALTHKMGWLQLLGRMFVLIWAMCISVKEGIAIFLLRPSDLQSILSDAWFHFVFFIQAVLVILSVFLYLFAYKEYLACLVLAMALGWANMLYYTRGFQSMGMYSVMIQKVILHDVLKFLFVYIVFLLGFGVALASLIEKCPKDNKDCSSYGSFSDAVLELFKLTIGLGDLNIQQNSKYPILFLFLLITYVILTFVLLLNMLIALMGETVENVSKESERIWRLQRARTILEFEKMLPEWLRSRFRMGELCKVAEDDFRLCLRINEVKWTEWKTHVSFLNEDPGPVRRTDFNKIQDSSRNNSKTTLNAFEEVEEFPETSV
Briefly: 45Calcium uptake assay: inhibition of 2-APB induced cellular uptake of radioactive calcium. The assay is classed as cell-based. Conditions: 2-APB 500 μM; for inhibition at 1 µM: read-out: Percentage inhibition at 1.0 μM; for inhibition at 10 µM: read-out: Percentage inhibition at 10.0 μM; for IC50: class symbols. From the text: Certain illustrative compounds within the scope of the present invention are screened for TRPV3 activity according to a modified procedure described in (a) Tóth, A. et al. Life Sciences 2003, 73, 487-498. (b) McNamara C, R. et al. Proc. Natl. Acad. Sci. U.S.A., 2007, 104, 13525-13530. The screening of the compounds may be carried out by other methods and procedures known to persons skilled in the art.
Screening for TRPV3 Antagonist Using the ^45Calcium Uptake Assay
The inhibition of TRPV3 receptor activation was followed as inhibition of 2-aminoethxydiphenylborate (2-APB) induced cellular uptake of radioactive calcium. Test compounds were dissolved in dimethyl sulfoxide (DMSO) to prepare 20 mM stock solution and then diluted using plain medium with DMEM/F-12 containing 1.8 mM CaCl2 to get desired concentration. Final concentration of DMSO in the reaction was 0.5% (v/v). Human TRPV3 expressing CHO cells were grown in DMEM/F-12 medium with 10% FBS, 1% penicillin-streptomycin solution, 400 μg/mL of G-418. Cells were seeded 24 h prior to the assay in 96 well plates so as to get ˜50,000 cells per well on the day of experiment. Cells were treated with test compounds for 10 minutes followed by addition of 2-APB at a final concentration of 500 μM and 5 μCi/mL ^45Ca^+2 for 4 minutes. Cells were washed and lysed using buffer containing 1% Triton X-100, 0.1% deoxycholate and 0.1% SDS. Radioactivity in the lysate was measured in Packardt Top count after addition of liquid scintillant. Concentration response curves were plotted as a % of maximal response obtained in the absence of test antagonist. IC50 value was calculated from concentration response curve by nonlinear regression analysis using GraphPad PRISM software.
Percentage inhibition at concentrations of 1.0 μM and 10.0 μM are given in the table along with IC50 (nM) details for selected examples.

Take “2-{(E)-2-[3-(Difluoromethoxy)-2-(2,2-dimethylpropoxy)phenyl]vinyl}-N-[4-(trifluoro-methyl)-1,3-thiazol-2-yl]imidazo[1,2-c]pyridine-3-carboxamide [Example 38]”: the “Percentage inhibition at 1.0 μM” value (compound at 1.0 μM) stood at 87.67%. In addition, the “Percentage inhibition at 10.0 μM” value (compound at 10.0 μM) stood at 97.11%.

For `COc1cccc(/C=C/c2nc3sccn3c2C(=O)Nc2ccc(OC(F)(F)F)cc2)c1OCC1CC1` [Example 1, 6-[(E)-2-(2-Cyclopropylmethoxy-3-methoxyphenyl)vinyl]-N-[4-(trifluoromethoxy)phenyl]imidazo[2,1-b][1,3]thiazole-5-carboxamide], where the note is “compound at 1.0 μM”, the inhibition at 1 µM was 9.3%. In addition, the inhibition at 10 µM (compound at 10.0 μM) was 38.6%.

With `COc1cccc(/C=C/c2nc3sccn3c2C(=O)Nc2nc(C(F)(F)F)cs2)c1OCC1CC1` [Example 2, 6-[(E)-2-(2-Cyclopropylmethoxy-3-methoxyphenyl)vinyl]-N-[4-(trifluoromethyl)-1,3-thiazol-2-yl]imidazo[2,1-b][1,3]thiazole-5-carboxamide], the IC50 lay in the range of 250 to 1000 nM. The inhibition at 1 µM (compound at 1.0 μM) was 73.2%. In addition, the inhibition at 10 µM (compound at 10.0 μM) was determined as 97.6%.

For the compound `COc1cccc(/C=C/c2nc3sccn3c2C(=O)N2CCCc3ccccc32)c1OCC1CC1` [Example 3, 1-({6-[(E)-2-(2-Cyclopropylmethoxy-3-methoxyphenyl)vinyl]imidazo[2,1-b][1,3]thiazol-5-yl}carbonyl)-1,2,3,4-tetrahydroquinoline], under “compound at 1.0 μM”, the inhibition at 1 µM was determined as 34.6%. Further, under “compound at 10.0 μM”, the inhibition at 10 µM turned out to be 90.6%.

For `COc1cccc(/C=C/c2nc3sccn3c2C(=O)N2CCN(c3ccc(C(F)(F)F)cn3)CC2)c1OCC1CC1` [Example 4, 6-[(E)-2-(2-Cyclopropylmethoxy-3-methoxyphenyl)vinyl]imidazo[2,1-b][1,3]thiazol-5-yl-4-(5-trifluoromethyl-2-pyridyl)piperazinomethanone], for the setting “compound at 1.0 μM”, the inhibition at 1 µM is 36.2%. For the same compound, the inhibition at 10 µM (compound at 10.0 μM) worked out at 91.7%.

As for `COc1cccc(/C=C/c2nc3sccn3c2C(=O)N2CCN(c3ccc(C#N)cn3)CC2)c1OCC1CC1` [Example 5], the inhibition at 1 µM (compound at 1.0 μM) came out at 5.32%. In addition, the inhibition at 10 µM (compound at 10.0 μM) is 38.2%.

With `COc1cccc(/C=C/c2nc3sccn3c2C(=O)Nc2nc(C(F)(F)F)cs2)c1OCC(C)C` [Example 6, 6-{(E)-2-[2-(Isobutoxy)-3-methoxyphenyl]vinyl}-N-[4-(trifluoromethyl)-1,3-thiazol-2-yl]imidazo[2,1-b][1,3]thiazole-5-carboxamide], the IC50 lay within 250 to 1000 nM. In addition, the inhibition at 1 µM (compound at 1.0 μM) was determined as 93%. Moreover, the inhibition at 10 µM (compound at 10.0 μM) amounted to 98.8%.

As to `COc1cccc(/C=C/c2nc3sccn3c2C(=O)Nc2nc(C(F)(F)F)cs2)c1OCC(C)(C)C` [Example 7, 6-{(E)-2-[2-(2,2-Dimethylpropoxy)-3-methoxyphenyl]vinyl}-N-[4-(trifluoromethyl)-1,3-thiazol-2-yl]imidazo[2,1-b][1,3]thiazole-5-carboxamide], the IC50 was < 100 nM. Moreover, the inhibition at 1 µM (compound at 1.0 μM) was 95.5%. Also, the inhibition at 10 µM (compound at 10.0 μM) is 99.5%.

In the case of `COc1cccc(/C=C/c2nc3sccn3c2C(=O)Nc2nc(C(C)(C)C)cs2)c1OCC(C)(C)C` [Example 8, 6-{(E)-2-[2-(2,2-Dimethylpropoxy)-3-methoxyphenyl]vinyl}-N-[4-(tert-butyl)-1,3-thiazol-2-yl]imidazo[2,1-b][1,3]thiazole-5-carboxamide], the IC50 was < 100 nM. Further, the inhibition at 1 µM (compound at 1.0 μM) came out at 88.1%. For the setting “compound at 10.0 μM”, the inhibition at 10 µM is 91.1%.

Take `COc1cccc(/C=C/c2nc3sccn3c2C(=O)Nc2nc(C)cs2)c1OCC(C)(C)C` [Example 10, 6-{(E)-2-[2-(2,2-Dimethylpropoxy)-3-methoxyphenyl]vinyl}-N-(4-methyl-1,3-thiazol-2-yl)imidazo[2,1-b][1,3]thiazole-5-carboxamide]: the concentration for half-maximal inhibition (IC50) was in the range of 250 to 1000 nM. Moreover, the inhibition at 1 µM (compound at 1.0 μM) is 69.3%. The inhibition at 10 µM (compound at 10.0 μM) stood at 80.6%.

Usually inhibition stands for the share of the control response that was lost under treatment. For orientation: IC50 means the concentration that gives 50% inhibition.
